Columns and labels:
Format in all cases: in vivo
[1] = system: ECHCG (Echinochloa crus-galli); assay: Pot trial Flufenacet+Dimethenamid-p+Thiencarbazone, first trial, pre-emergence; details: g a.i./ha: Flufenacet 12.2 (12.5 in mix), TCM 3, DMTP 50
Source text: (§1) A synergistic effect exists whenever the action of an active ingredient combination is greater than the sum of the actions of the individual components. In the field of agriculture, it is often understood that the term “synergy” is as defined by Colby S. R. in an article entitled “Calculation of the synergistic and antagonistic responses of herbicide combinations” published in the journal Weeds, 1967, 15, p. 20-22. The action expected for a given combination of two active components can be calculated according to Colby as follows: […]
(§2) in which E represents the expected effect, e.g. percentage of pest control, for the combination of the active ingredients at defined doses (for example equal to x and y respectively), A is the effect, e.g. percentage of pest control, observed for the first compound or mixture of compounds at a defined dose (equal to x), B is the effect, e.g. percentage of pest control, observed for the second compound or group of compounds at a defined dose (equal to y).
(§3) Here, efficacy or percent inhibition is determined in %. 0% means efficacy that corresponds to the Control, i.e., as if no treatment had been applied. A percent inhibition of 100% means that complete control is observed. When the percent control observed for the combination (E0) is greater than E, there is a synergistic effect. […]

[2] = system: SETVE (Setaria verticillate); assay: as above; details: g a.i./ha: Flufenacet 12.2 (12.5 in mix), TCM 3, DMTP 50
Source text: as §1, §2, §3

[3] = system: ECHCG (Echinochloa crus-galli); assay: Pot trial Flufenacet+Dimethenamid-p+Thiencarbazone, second trial, post-emergence; details: post-emergence (2-3 leaves), g a.i./ha: Flufenacet 12.2 (12.5 in mix), TCM 3, DMTP 50
Source text: as §1, §2, §3

[4] = system: AMARE (Amaranthus retroflexus); assay: Pot trial Flufenacet+Dimethenamid-p+Thiencarbazone, third trial, post-emergence; details: post-emergence (2-3 leaves), g a.i./ha: Flufenacet 75, TCM 18, DMTP 302
Source text: as §1, §2, §3

[5] = system: CHEAL (Chenopodium album); assay: as above; details: post-emergence (2-3 leaves), g a.i./ha: Flufenacet 75, TCM 18, DMTP 302
Source text: as §1, §2, §3

[6] = system: AMARE (Amaranthus retroflexus); assay: Pot trial Flufenacet+Dimethenamid-p+Mesotrione, post-emergence; details: post-emergence (2-3 leaves), g a.i./ha: Flufenacet 75, MST 60, DMTP 302
Source text: as §1, §2, §3

[7] = system: ECHCG (Echinochloa crus-galli); assay: as above; details: post-emergence (2-3 leaves), g a.i./ha: Flufenacet 75, MST 60, DMTP 302
Source text: as §1, §2, §3

[8] = system: AMAPA (Amaranthus palmeri); assay: Pot trial Dimethenamid-P+Pethoxamid+Mesotrione, first and second trial, post-emergence
Source text: as §1, §2, §3

[9] = system: AMAPA (Amaranthus palmeri); assay: Pot trial Dimethenamid-P+Pethoxamid+Mesotrione, third trial, pre-emergence; details: g a.i./ha: Petoxamid 360, MST 40, DMTP 200
Source text: as §1, §2, §3

SETVI (Setaria viridis) [10] = assay: Pot trial Dimethenamid-P+Thiencarbazone+Pethoxamid, post-emergence
Source text: as §1, §2
(§4) Here, efficacy or percent inhibition is determined in %. 0% means efficacy that corresponds to the Control, i.e., as if no treatment had been applied. A percent inhibition of 100% means that complete control is observed. When the percent control observed for the combination (E0) is greater than E, there is a synergistic effect. When the percent control observed for the combination (E0) is equal to E, there is an additive effect and wherein the percent control observed for the combination (E0) is lower than E, there is an antagonistic effect.
(§5) First trial: Tank mixes were prepared by combining the formulation with water in order to achieve the desired concentration of each active ingredient, as outlined in Table 19. For this study, individual pots were utilized for sowing the weeds, with each pot containing one weed species, in this case SOLNI (Solanum nigrum) or SETVI (Setaria viridis). Treatments were then applied to each pot at the post-emergence stage of the weeds, ensuring consistent application timing across all treatments. Subsequently, a comprehensive assessment was conducted seven days after application (7DAA) to evaluate the efficacy of each treatment on SOLNI or SETVI.
(§6) Second trial: Tank mixes were prepared by combining the formulation with water in order to achieve the desired concentration of each active ingredient, as outlined in Table 21. For this study, individual pots were utilized for sowing the weeds, with each pot containing one weed species, in this case SOLNI (Solanum nigrum) or SETVI (Setaria viridis). Treatments were then applied to each pot at the post-emergence stage of the weeds, ensuring consistent application timing across all treatments. […]

SOLNI (Solanum nigrum) [11] = assay: as above
Source text: as §1, §2, §4, §5, §6

SOLNI (Solanum nigrum) [12] = assay: Pot trial Dimethenamid-P+Tembotrione+Pethoxamid (Example 6), post-emergence
Source text: as §1, §2, §3

SETVI (Setaria viridis) [13] = assay: Pot trial Dimethenamid-P+Tembotrione+Pethoxamid (Example 7), post-emergence
Source text: as §1, §2, §3

[14] = system: AMAPA (Amaranthus palmeri); assay: Pot trial Dimethenamid-P+S-Metolachlor+Mesotrione, post-emergence
Source text: as §1, §2, §3

[15] = first trial, g a.i./ha: PTX 360, TCM/DMTP 159 (one cell)
[16] = second trial, g a.i./ha: PTX 720, TCM/DMTP 318 (one cell)
[17] = second trial, g a.i./ha: PTX 720, TMB 63, DMTP 604.8

`CC(C)N(C(=O)COc1nnc(C(F)(F)F)s1)c1ccc(F)cc1` [Flufenacet] was tested, and the “efficacy 8DAA ECHCG %” value [1] was 0%, the “efficacy 8DAA SETVE %” value [2] was 0% and the “efficacy 8DAA ECHCG %” value [3] was 0%. The “efficacy 8DAA AMARE %” value [4] was 0%, the “efficacy 8DAA CHEAL %” value [5] was 0% and the “efficacy 8DAA AMARE %” value [6] was 0%. For the same molecule, the “efficacy 8DAA ECHCG %” value [7] was 0%.
With `CCOCCN(C(=O)CCl)C(=C(C)C)c1ccccc1` [Pethoxamid] the “efficacy 21DAA AMAPA %” value ([8]; first trial, g a.i./ha: Petoxamid 720, MST 60, DMTP 300) was 6.25%, the “efficacy 21DAA AMAPA %” value ([8]; second trial, g a.i./ha: Petoxamid 120, MST 20, DMTP 100) was 0% and the “efficacy 21DAA AMAPA %” value [9] was 52.50%. For the same molecule, the “efficacy 7DAA SETVI %” value (SETVI (Setaria viridis) [10]; [15]) was 2.50%, the “efficacy 7DAA SETVI %” value (SETVI (Setaria viridis) [10]; [16]) was 0.00% and the “efficacy 7DAA SOLNI %” value (SOLNI (Solanum nigrum) [11]; [15]) was 0.00%. The “efficacy 7DAA SOLNI %” value (SOLNI (Solanum nigrum) [11]; [16]) was 1.70%, the “efficacy 7DAA SOLNI %” value (SOLNI (Solanum nigrum) [12]; first trial, g a.i./ha: PTX 120, TMB 10.5, DMTP 100) was 0.00% and the “efficacy 7DAA SOLNI %” value (SOLNI (Solanum nigrum) [12]; [17]) was 1.70%. For the same molecule, the “efficacy 7DAA SETVI %” value (SETVI (Setaria viridis) [13]; first trial, g a.i./ha: PTX 360, TMB 10.5, DMTP 100.8) was 2.50% and the “efficacy 7DAA SETVI %” value (SETVI (Setaria viridis) [13]; [17]) was 0.00%.
In the case of `CCc1cccc(C)c1N(C(=O)CCl)[C@@H](C)COC` [S-metolachlor], the “efficacy 18DAA AMAPA %” value ([14]; first trial, g a.i./ha: S-MOc 144, MST 20, DMTP 100) is reported as 0.00% and the “efficacy 18DAA AMAPA %” value ([14]; second trial, g a.i./ha: S-MOc 288, MST 40, DMTP 200) is reported as 0.00%.
